Test results as given in patent US20250250582A1, “Plant Cells and Plants Modified to Increase Herbicide Resistance and Stress Tolerance and Methods of Using the Same” (The Board of Trustees of the University of Arkansas, priority 2018, published 2025).
Several values for one entry are separate records, joined by “and”; a condition that tells them apart may be missing. Equal entries are not always repeated.

Assays:
[1] = test system: multiple-resistant E. colona (ECO-R); assay: Herbicide resistance profile of ECO-R; assay type: in vivo, Echinochloa colona; conditions: data not shown
Excerpt: Beginning in 2010, through the 2016 cropping cycle, Echinochloa spp. from throughout the rice producing counties of Arkansas, USA, located along the Mississippi River were sampled for a survey of the current status of herbicide resistance. Seeds were bulk sampled from plants that had matured in rice and soybean production fields, which had survived at least one herbicide application, were collected and sent to the University of Arkansas Altheimer Laboratory in Fayetteville for characterization and evaluation of herbicide resistance to common rice herbicides. […] From this screening program, two populations of E. colona were selected for use in this experiment. […] To establish inbred and homozygous accessions for the experiment, a single plant, verified as resistant/susceptible of ECO-R and ECO-S were grown in isolation to produce seed for further experiments.
Accession source and population profiling. From 2010 to 2016, the University of Arkansas weed physiology group has been collecting putative herbicide-resistant Echinochloa populations from rice production fields throughout the state of Arkansas. […] Collections took place in the late summer to early fall prior to rice harvest; these accessions were bulk sampled by in-field location and farm, with field histories collected when possible. All of the samples were submitted to the University of Arkansas Altheimer Laboratory for assessment of their resistance profile and characterized according to their species. […] Populations with unique profiles and of interest for further research were then grown in isolation to produce pureline seed. […] Another accession, E. colona susceptible (ECO-S), was also selected and grown in isolation. This accession was selected because of its similar cropping history and geographic location, as well as its high level of susceptibility to the herbicides of interest.

[2] = test system: multiple-resistant E. colona (ECO-R); assay: RNA-sequencing differential gene expression, herbicide-treated vs nontreated ECO-R; conditions: ECO-R-T vs ECO-R-N, 24 h
Excerpt: (§1) Pure-line generated seed of each accession were germinated in pots containing potting soil within a temperature/light controlled growth chamber set to a 14-hr day length, 33 C day temperature, and 24 C night time to simulate environmental conditions early in the rice growing season. A single plant was maintained in each of the pots and used for the treatments; two pots were used as individual biological replicates. […] Pots for each of the respective treatments were labeled as either ECO-R/S-T for the treated samples and ECO-R/S-N for the non-treated counterpart. To minimize the effect that the sprayer may play in the application, both plants of the ECO-R and ECO-S were treated at the same time. After approximately 30 minutes, allowing for the plants to dry, the treated and non-treated plants of both accessions were moved back into the growth chamber. Precisely 24-hours after application, the aboveground portion of each of the plants were removed and immediately frozen in liquid nitrogen to cease all biological function. Samples were then transferred to RNAlater™-ICE (Invitrogen, Carlsbad CA, USA) for shipment to the Clemson University Genomics Institute (CUGI), in Clemson, South Carolina.
(§2) RNA was extracted from the young leaf tissues of both replications for the ECO-R and ECO-S, T and N samples, at Clemson University. Total RNA was extracted with a kit according to the manufactures instructions. The extracted RNA was treated with DNase (Invitrogen, Calsbad, CA, USA) to remove any DNA contamination prior to further processing. The samples were prepared for sequencing by CUGI. For library preparation, the TruSeq Stranded Total RNA kit (Illumina Inc., San Diego, CA, USA) was used according to the instructions provided by the manufacturer to produce a paired-end library for sequencing. Ribosomal RNA was removed using target-specific oligonucleotides paired with rRNA removal beads, removing all cytoplasmic and mitochondrial rRNA that may result in poor quality results. RNA was fragmented and reverse transcribed to cDNA using random primers, followed by a second strand cDNA synthesis. Each fragment is then ligated with an additional ‘A’ and an adapter for sequencing. The PCR enriched product is then used to create the final cDNA library. All samples were sequenced on an Illumina Hiseq 2500 platform housed in the Holdings Cancer Center at the Medical University of South Carolina, Charleston, SC, USA. Samples, regardless of treatments or replication were ran across three lanes to reduce sequencing errors from the equipment. The resulting data were processed by CUGI.
(§3) A de novo transcriptome was assembled from the treatments described for this experiment as well as several treatments, which included herbicides profiled in ECO-R. The treatments were applied to both ECO-R and ECO-S samples with two replications as described previously. In total, 20 individual plants, from both the ECO-R and ECO-S accessions, as well as T and NT samples, were used for the assembly. The transcriptome was assembled using the Trinity RNA-Seq pipeline (Broad Institute, Cambridge, MA, USA). Raw data were assessed for quality using FastQC (Babraham Institute, Cambridge, UK) and then processed to remove adapter sequences and low quality bases using a sliding window method. The processed data were then rerun using FastQC to ensure high quality reads. Using the TrinityRNASeq 2.2.0 software, the samples were normalized, by replication, using a coverage size of 100 and kmer of 32. The normalized reads were then assembled as transcripts and genes using Trinity with the stranded library set as the default.

[3] = test system: susceptible E. colona (ECO-S); assay: RNA-sequencing differential gene expression, herbicide-treated vs nontreated ECO-S; conditions: ECO-S-T vs ECO-S-N, 24 h
Excerpt: as §1, §2, §3

[4] = test system: resistant Echinochloa species; assay: Determination of resistance level (visual injury), resistant accessions; assay type: in vivo, E. colona and E. crus-galli; conditions: 2 X dose, visual 3 wk after treatment; propanil range excludes ECO187
Excerpt: The experiment was repeated once.

[5] = test system: susceptible E. colona standard; assay: Determination of resistance level (visual injury), susceptible plants; conditions: 2 X dose, visual 3 wk after treatment
[6] = test system: ECO-R compared to ECO-S after herbicide treatment; assay: RNA-sequencing differential gene expression, ECO-R-T compared to ECO-S-T; conditions: ECO-R-T vs ECO-S-T, 24 h
Excerpt: as §1, §2, §3

C[C@@H](Oc1ccc(Oc2ccc(C#N)cc2F)cc1)C(=O)O [cyhalofop]
level of resistance [1]: ~2 × field dose

CP(=O)(O)CCC(N)C(=O)O (stereo not shown) [glufosinate]
glutamine synthetase (one form) fold change ([2]; induced): 7.5 fold | glutamine synthetase cytosolic isozyme 1-3 fold change ([2]; induced): 8.2 fold | level of resistance [1]: ~2 × field dose

O=C(O)c1c(Cl)ccc2cc(Cl)cnc12 [quinclorac]
ABCB5 fold change [3]: −6.5 fold | ABCC10 fold change [3]: −6.1 fold | ACC oxidase 1 fold change (two forms) [3]: 2.2 fold and 2.8 fold | ACC oxidase fold change [3]: −2.8 fold | ACC oxidase homolog 3 fold change [3]: −2.2 fold | ACC synthase fold change [3]: −2.7 fold | ALPL1 fold change, five repressed transcripts [3]: −12 to −1.4 fold | EIN2 fold change [3]: 3.9 fold | RAP2-2 fold change [3]: 1.9 fold | VP14 (9-cis-epoxycarotenoid dioxygenase) fold change [3]: −6.4 fold | ALPL1 fold change, three induced transcripts ([3]; as much as): ≤ 3.5 fold | injury of resistant Echinochloa species [4]: 2-65% | susceptible plants killed [5]: 100% | ABCD2 fold change [2]: −9.2 fold | ACC synthase fold change [2]: 6.3 fold | UGT73D1 fold change [2]: 5.3 fold | UGT73E1 fold change [2]: 2.6 fold | UGT75D1 fold change [2]: 7.3 fold and ~9 fold | cytochrome c oxidase proteins fold change [2]: −8.4 fold | ATP synthase subunit(s) fold change ([2]; repressed): up to −12.3 fold | acetyl-CoA and acetyl-CoA 2 proteins fold change ([2]; repressed up to): up to −10.2 fold | pyruvate dehydrogenase subunits fold change ([2]; repressed up to): ≤ −12 fold | ABA receptor PYL5 fold change [6]: −4.4 fold | ACC synthase fold change [6]: 9 fold | Alanine aminotransferase 2 Fold Change [6]: 4 fold | Aspartate aminotransferase, chloroplastic Fold Change [6]: 4 fold | Beta-amylase 1, chloroplastic Fold Change [6]: 4 fold | Branched-chain-amino-acid aminotransferase 5, chloroplastic Fold Change [6]: 4 fold | CYP71A1 Fold Change [6]: 3 fold and 5 fold and 6 fold | CYP71A4 Fold Change [6]: 5.6 fold and 6 fold | CYP71A8 Fold Change [6]: 4 fold | CYP71A9 Fold Change [6]: −6 fold | CYP72A15 Fold Change [6]: −7 fold | CYP89A2 Fold Change [6]: −10 fold | CYP709B2 Fold Change [6]: 6 fold and 7 fold and 11 fold | Desumoylating isopeptidase 1 Fold Change [6]: 4 fold | Fructose-bisphosphate aldolase, chloroplastic Fold Change [6]: 4 fold | GSTU20 Fold Change [6]: 6 fold | Haloacid dehalogenase-like hydrolase domain-containing protein 3 Fold Change [6]: 4 fold | IAA-amino acid hydrolase ILR1-like 4 Fold Change [6]: −6 fold | Nudix hydrolase 21, chloroplastic Fold Change [6]: 3 fold and 4 fold | Probable xyloglucan endotransglucosylase/hydrolase protein 28 Fold Change [6]: −4 fold | Prolyl endopeptidase Fold Change [6]: 8 fold and 9 fold and 15 fold | Pyrimidine-specific ribonucleoside hydrolase RihA Fold Change [6]: −9 fold | Serine carboxypeptidase-like 42 Fold Change [6]: −5 fold | UGT73D1 fold change [6]: 8 fold | UGT73E1 fold change [6]: 5 fold | UGT74D1 Fold Change [6]: −4 fold | UGT75D1 fold change [6]: 8.7 fold and 9 fold | UGT88A1 Fold Change [6]: 4 fold | level of resistance [1]: > 32 × field dose
